Laboratory results: patent US6812212B2, “Assessment of oxidant stress in vitro and in vivo” (priority 2000, dated 2004)
One block for each compound: values may come before it.

Columns and labels:
[1] = molecular target: T1, prostaglandin H2 synthase form 2 (Ovis aries, UniProt P79208); assay: Peroxynitrite-induced nitration of prostaglandin H2 synthase form 2, Western blot with anti-nitrotyrosine antibodies; type: biochemical, sheep; settings: for nitration of tyrosine residues of prostaglandin H2 synthase form 2 in the presence of reducing agent: 16 μg sheep PGHS-2, 450 μM peroxynitrite, 31 μM GSH
T1 construct: Prostaglandin H2 synthase form 2, isolated from sheep placenta, contained nitrated tyrosine residues; purchased Cayman Co. (Ann Arbor, Mich.); host or cells: sheep placenta (tissue-purified)
T1 sequence (P79208 17-603): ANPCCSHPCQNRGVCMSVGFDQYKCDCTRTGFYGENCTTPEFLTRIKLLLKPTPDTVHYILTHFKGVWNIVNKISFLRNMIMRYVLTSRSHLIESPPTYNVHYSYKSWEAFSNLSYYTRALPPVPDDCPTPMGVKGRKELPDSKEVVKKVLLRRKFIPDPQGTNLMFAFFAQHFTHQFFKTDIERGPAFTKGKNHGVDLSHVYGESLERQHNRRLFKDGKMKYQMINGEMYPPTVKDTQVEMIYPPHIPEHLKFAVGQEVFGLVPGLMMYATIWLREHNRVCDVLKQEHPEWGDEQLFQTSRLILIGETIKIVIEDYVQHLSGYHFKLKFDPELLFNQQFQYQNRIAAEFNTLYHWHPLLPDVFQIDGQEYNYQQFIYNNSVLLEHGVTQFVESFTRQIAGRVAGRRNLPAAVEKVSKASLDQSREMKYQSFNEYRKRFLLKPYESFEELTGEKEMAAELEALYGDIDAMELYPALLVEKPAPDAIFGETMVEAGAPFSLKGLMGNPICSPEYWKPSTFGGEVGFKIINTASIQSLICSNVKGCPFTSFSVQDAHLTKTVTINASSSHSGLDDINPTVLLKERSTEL
Description: (§1) SDS-PAGE was carried out on 10% or 15% gels, according to Laemmli (18), with or without the addition of β-mercaptoethanol in gel loading buffer before heat denaturization of proteins. The separated proteins were electroblotted onto a […] membrane and Western blot analyses were carried out using alkaline phosphatase system as previously described (19,20). Visualization of bands was accomplished by incubation with a mixture of 5-bromo-4-chloro-3-indolylphosphatate p-toluidine and nitrobluetetrazolium. Western blot analyses were also carried out using horseradish peroxidase or alkaline phosphatase system with […] substrates.

[2] = molecular target: T1, prostaglandin H2 synthase form 2; assay: Peroxynitrite-induced dimerization of prostaglandin H2 synthase form 2, SDS-PAGE without β-mercaptoethanol and Western blot; type: biochemical, sheep; settings: 450 μM peroxynitrite
Description: as §1

[3] = molecular target: T2, prostaglandin H2 synthase form 1 (Ovis aries, UniProt P05979); assay: Prostaglandin H2 synthase activity analysis by TLC ([14C]arachidonic acid conversion); type: biochemical, sheep; settings: pretreated at 37° C. for 30 minutes; 25 μM [14C]arachidonic acid
T2 construct: sheep prostaglandin H2 synthases form 1 and 2 obtained from ram seminal vesicle and placenta, respectively; purchased Cayman Co. (Ann Arbor, Mich.); host or cells: ram seminal vesicle (tissue-purified)
T2 sequence (P05979 25-600): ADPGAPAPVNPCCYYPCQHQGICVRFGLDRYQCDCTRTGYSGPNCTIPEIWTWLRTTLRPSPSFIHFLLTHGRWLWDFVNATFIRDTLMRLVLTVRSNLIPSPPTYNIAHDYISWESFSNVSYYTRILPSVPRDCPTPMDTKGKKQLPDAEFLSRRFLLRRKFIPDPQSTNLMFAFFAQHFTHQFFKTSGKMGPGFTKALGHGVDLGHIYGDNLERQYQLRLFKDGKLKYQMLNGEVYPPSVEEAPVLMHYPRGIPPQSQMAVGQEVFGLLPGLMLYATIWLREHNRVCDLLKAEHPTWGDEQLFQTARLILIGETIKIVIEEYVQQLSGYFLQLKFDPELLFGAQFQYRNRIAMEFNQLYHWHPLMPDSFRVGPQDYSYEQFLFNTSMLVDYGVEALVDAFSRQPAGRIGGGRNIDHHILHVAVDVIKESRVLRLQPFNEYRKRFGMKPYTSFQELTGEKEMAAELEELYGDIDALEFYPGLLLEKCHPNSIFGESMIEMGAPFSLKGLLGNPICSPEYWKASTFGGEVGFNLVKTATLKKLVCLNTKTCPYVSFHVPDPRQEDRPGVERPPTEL
Description: (§2) Prostaglandin H2 synthase activity analysis of sheep prostaglandin H2 synthases form 1 and 2 obtained from ram seminal vesicle and placenta, respectively, were carried out as previously described (21) with or without pretreatment with peroxynitrite. Briefly, purified or partly purified sheep prostaglandin H2 synthases form 1 (9 units) and form 2 (12 units) were pretreated with or without peroxynitrite at 37° C. for 30 minutes. [^14C]arachidonic acid (AA) (25 μM) (NEN, specific activity 53 mCi/mmol) was added to the prostaglandin H2 synthase form 1 or form 2 in 0.2 ml of PBS, and incubated at 37° C. for 10 minutes. Prostaglandin H2 synthase metabolites in the medium were extracted with ethyl acetate, dried down in a centrifugal evaporator, spotted on a silica TLC plate and separated using A-9 solvent (ethyl acetate:trimethylpentane:acetic acid:water, 55:25:10:50). The TLC assay measured products resulting from both the cyclooxygenase and peroxidase activities of prostaglandin H2 synthase. The immediate product of the prostaglandin H2 synthase reaction, prostaglandin H2, was unstable and broke down in a non-enzymatic fashion to a variety of prostaglandins which were detectable by TLC. The Rf pattern in the A-9 solvent system of the break down products of prostaglandin H2 produced by ram seminal vesicle prostaglandin H2 synthase form 1 was well characterized. […]

[4] = molecular target: T1, prostaglandin H2 synthase form 2; assay: as above; type: biochemical, sheep; settings: pretreated at 37° C. for 30 minutes; 25 μM [14C]arachidonic acid
Description: as §2

cytochrome c [5] = assay: Nitration and polymerization of cytochrome c, SDS-PAGE and anti-nitrotyrosine Western blot; type: biochemical
Description: as §1
Cytochrome c (40 μg) was incubated with 0.5 mM (FIG. 1, Panel A, lane 1) […] deactivated (a negative control, FIG. 1, Panel A, lane 2) peroxynitrite in 100 mM phosphate buffer, pH 7.4. Deactivated peroxynitrite was produced by incubation of 0.5 mM peroxynitrite in buffer for 5 minutes prior to addition to the reaction mixture. […]
Cytochrome c (40 μg) was incubated with increasing concentrations (0.032 to 0.13 mM) (FIG. 1, Panel B) of peroxynitrite in 100 mM phosphate buffer, pH 7.4. […] The cytochrome c monomer band (14 kDa) shown in Western blot analysis in FIG. 1, Panel B and those obtained from two other experiments were quantitated using Molecular Dynamics Personal Densitometer (FIG. 1, Panel C).

cytochrome c [6] = assay: Nitration and polymerization of cytochrome c by NO donor during prostaglandin H2 synthase form 2 metabolism of arachidonic acid; type: biochemical; settings: 300 μM DETA NONOate with ovine PGHS-2 and arachidonic acid (590 μM), 37° C., 30 minutes
Description: Western blot analysis was carried out with monoclonal antibodies produced against nitrotyrosine using the alkaline phosphatase system;
Reaction mixture in 100 mM phosphate buffer, pH 7.4, (total volume, 200 μl) was incubated at 37° C. for 30 minutes. The reaction mixture contained a combination of cytochrome c (40 μg), ovine prostaglandin H2 synthase form 2 (104 units), arachidonic acid (590 μM), epinephrine (31 μg), hematin (1 μM), and DETA NONOate, an NO donor, (300 μM) as indicated in FIG. 2. After incubation, the proteins were separated by SDS-PAGE followed by Western blot analysis with an alkaline phosphatase system using monoclonal antibodies produced against nitrotyrosine.

nitration of tyrosine residues of prostaglandin H2 synthase form 2 by oxidant ([1]; 450 μM peroxynitrite, no GSH): increased
catalytic activity of prostaglandin H2 synthase form 1 after treatment [3]: abolished
catalytic activity of prostaglandin H2 synthase form 2 after treatment [4]: abolished
SMILES: O=NOO [peroxynitrite]
dimerization of prostaglandin H2 synthase form 2 by oxidant ([2]; no GSH, no β-mercaptoethanol): migrated both as a monomer (70 kDa) and a dimer (140 kDa)
nitration and polymerization of cytochrome c (cytochrome c [5]; 0.5 mM peroxynitrite, 100 mM phosphate buffer, pH 7.4): nitrated and polymerized to 30 kDa, 45 kDa and higher molecular mass
concentration dependence of nitration and polymerization of cytochrome c (cytochrome c [5]; 0.032 to 0.13 mM peroxynitrite): nitrated and polymerized in a dose-dependent manner

SMILES: NCCN(CCN)/[N+]([O-])=N/O [DETA NONOate, diethylenetetraamine (DETA) NONOate]
nitration and polymerization of cytochrome c (cytochrome c [6]): nitrated and polymerized

nitration of tyrosine residues of prostaglandin H2 synthase form 2 in the presence of reducing agent [1]: inhibited
nitration of tyrosine residues of prostaglandin H2 synthase form 2 in the presence of reducing agent ([1]; listed as GSH): not nitrated
dimerization of prostaglandin H2 synthase form 2 in the presence of reducing agent ([2]; 31 μM GSH, no β-mercaptoethanol in loading buffer): ran as a monomer
SMILES: N[C@@H](CCC(=O)N[C@@H](CS)C(=O)NCC(=O)O)C(=O)O [glutathione]
